In one assay the test system is Phytophthora infestans. The experiment in a line: whole plant or invertebrate. The format is in vivo. To be noted: in Solanum lycopersicum, foliar, read-out: control of Phytophthora infestans compared to untreated control.
In a further assay the test system is Pythium ultimum. The experiment in a line: Pythium ultimum / liquid culture (seedling damping off). In kind it is cell-based. To be noted: Globisporangium ultimum, liquid culture in PDB, 24 °C, 2-3 days after application, read-out: control of Pythium ultimum (inhibition of growth, photometric) compared to untreated control. As for the experimental part: Pythium ultimum/Liquid Culture (Seedling Damping Off):
Mycelia fragments and oospores of a newly grown liquid culture of the fungus are directly mixed into nutrient broth (PDB potato dextrose broth). After placing a (DMSO) solution of test compound into a microtiter plate (96-well format), the nutrient broth containing the fungal mycelia/spore mixture is added. The test plates are incubated at 24° C. and the inhibition of growth is determined photometrically 2-3 days after application.

SMILES strings stand for the structures. Some results are limits rather than exact numbers.

By inhibition is commonly meant how much of the control response was suppressed.

In the case of `COC(=O)Nc1ccc(-c2cnc3ccc(C(=O)N(CS(C)(=O)=O)c4ccc(F)c(OC)c4)cn23)cn1` [Compound 92, methyl N-[5-[6-[(4-fluoro-3-methoxy-phenyl)-(methylsulfonylmethyl)carbamoyl]imidazo[1,2-a]pyridin-3-yl]-2-pyridyl] carbamate], the pest or weed control at 200 ppm in the assay with Phytophthora infestans was no less than 80%. For the same compound, in the assay on Pythium ultimum, the inhibition at 20 ppm was no less than 80%.
`COC(=O)Nc1ccc(-c2cnc3ccc(C(=O)N(C)c4cccc(F)c4)cn23)cn1` [Compound 52, methyl N-[5-[6-[(3-fluorophenyl)-methyl-carbamoyl]imidazo[1,2-a]pyridin-3-yl]-2-pyridyl]carbamate]: the pest or weed control at 200 ppm in the assay on Phytophthora infestans is no less than 80%. Besides, the inhibition at 20 ppm in the assay with Pythium ultimum is no less than 80%.
Take `CCN(C(=O)c1ccc2ncc(-c3ccc(NC(=O)OC)nc3)n2c1)c1ccc(Cl)cc1` [Compound 129, methyl N-[5-[6-[(4-chlorophenyl)-ethyl-carbamoyl]imidazo[1,2-a]pyridin-3-yl]-2-pyridyl]carbamate]: the pest or weed control at 200 ppm in the assay with Phytophthora infestans was no less than 80%. Further, the inhibition at 20 ppm with Pythium ultimum is no less than 80%.
In the case of `COC(=O)Nc1ccc(-c2cnc3ccc(C(=O)N(C)c4ccnc(F)c4)cn23)cn1` [Compound 71, methyl N-[5-[6-[(2-fluoro-4-pyridyl)-methyl-carbamoyl]imidazo[1,2-a]pyridin-3-yl]-2-pyridyl]carbamate], the pest or weed control at 200 ppm with Phytophthora infestans was no less than 80%. Also, the inhibition at 20 ppm in the assay on Pythium ultimum is no less than 80%.
Turning to `CNC(=O)Nc1ccc(-c2cnc3ccc(C(=O)N(C)c4ccc(F)c(OC)c4)cn23)cn1` [Compound 81, N-(4-fluoro-3-methoxy-phenyl)-N-methyl-3-[6-(methylcarbamoyl-amino)-3-pyridyl]imidazo[1,2-a]pyridine-6-carboxamide], the pest or weed control at 200 ppm in the assay with Phytophthora infestans is no less than 80%. Further, in the assay on Pythium ultimum, the inhibition at 20 ppm is no less than 80%.
Regarding `COC(=O)Nc1ccc(-c2cnc3ccc(C(=O)N(CCC#N)c4cccc(C)c4)cn23)cn1` [Compound 130, methyl N-[5-[6-[2-cyanoethyl(m-tolyl)carbamoyl]imidazo [1,2-a]pyridin-3-yl]-2-pyridyl]carbamate], the pest or weed control at 200 ppm in the assay with Phytophthora infestans is no less than 80%. Further, the inhibition at 20 ppm with Pythium ultimum is no less than 80%.
As to `CNC(=O)CN(C(=O)c1ccc2ncc(-c3ccc(NC(=O)OC)nc3)n2c1)c1ccc(F)c(OC)c1` [Compound 97, methyl N-[5-[6-[(4-fluoro-3-methoxy-phenyl)-[2-(methylamino)-2-oxo-ethyl]carbamoyl]imidazo[1,2-a]pyridin-3-yl]-2-pyridyl]carbamate], in the assay on Phytophthora infestans, the pest or weed control at 200 ppm is no less than 80%. The inhibition at 20 ppm in the assay with Pythium ultimum was no less than 80%.
As for `CCOCCN(C(=O)c1ccc2ncc(-c3ccc(NC(=O)OC)nc3)n2c1)c1ccc(Cl)cc1` [Compound 123, methyl N-[5-[6-[(4-chlorophenyl)-(2-ethoxyethyl)carbamoyl]imidazo[1,2-a]pyridin-3-yl]-2-pyridyl]carbamate], the pest or weed control at 200 ppm in the assay with Phytophthora infestans was no less than 80%. Besides, the inhibition at 20 ppm with Pythium ultimum is no less than 80%.
With `COC(=O)Nc1ccc(-c2cnc3c(C4CC4)cc(C(=O)N(C)c4ccc(F)cc4)cn23)cn1` [Compound 83, methyl N-[5-[8-cyclopropyl-6-[(4-fluorophenyl)-methyl-carbamoyl]imidazo[1,2-a]pyridin-3-yl]-2-pyridyl]carbamate], the pest or weed control at 200 ppm in the assay on Phytophthora infestans is no less than 80%. Besides, the inhibition at 20 ppm in the assay on Pythium ultimum was no less than 80%.
Consider `COC(=O)Nc1ccc(-c2cnc3ccc(C(=O)N(CCC#N)c4ccc(F)cc4)cn23)cn1` [Compound 132, methyl N-[5-[6-[2-cyanoethyl-(4-fluorophenyl)carbamoyl]imidazo [1,2-a]pyridin-3-yl]-2-pyridyl]carbamate], for which the pest or weed control at 200 ppm in the assay on Phytophthora infestans is no less than 80%. For the same compound, the inhibition at 20 ppm in the assay with Pythium ultimum is no less than 80%.
For the compound `CC(=O)Nc1ccc(-c2cnc3c(C)cc(C(=O)N(C)c4ccc(F)cc4)cn23)cn1` [Compound 168, 3-(6-acetamido-3-pyridyl)-N-(4-fluorophenyl)-N,8-dimethyl-imidazo[1,2-a]pyridine-6-carboxamide], the pest or weed control at 200 ppm with Phytophthora infestans is no less than 80%. Also, the inhibition at 20 ppm in the assay on Pythium ultimum was no less than 80%.
Turning to `COC(=O)Nc1ccc(-c2cnc3ccc(C(=O)N(C)c4cncc(OC)c4)cn23)cn1` [Compound 55, methyl N-[5-[6-[(5-methoxy-3-pyridyl)-methyl-carbamoyl]imidazo[1,2-a]pyridin-3-yl]-2-pyridyl]carbamate], the pest or weed control at 200 ppm in the assay on Phytophthora infestans is no less than 80%. Moreover, in the assay with Pythium ultimum, the inhibition at 20 ppm is no less than 80%.
Turning to `CCN(C(=O)c1ccc2ncc(-c3ccc(NC(=O)OC)nc3)n2c1)c1ccc(OC)c(OC)c1` [Compound 119, methyl N-[5-[6-[(3,4-dimethoxyphenyl)-ethyl-carbamoyl]imidazo[1,2-a]pyridin-3-yl]-2-pyridyl]carbamate], the pest or weed control at 200 ppm in the assay with Phytophthora infestans is no less than 80%.
On to `COC(=O)Nc1ccc(-c2cnc3ccc(C(=O)N(c4ccc(F)cc4)C4CCC4)cn23)cn1` [Compound 109, methyl N-[5-[6-[cyclobutyl-(4-fluorophenyl)carbamoyl]imidazo [1,2-a]pyridin-3-yl]-2-pyridyl]carbamate], for which, in the assay with Phytophthora infestans, the pest or weed control at 200 ppm was no less than 80%. In the assay with Pythium ultimum, the inhibition at 20 ppm was no less than 80%.
As to `C#Cc1cccc(N(C)C(=O)c2ccc3ncc(-c4ccc(NC(=O)OC)nc4)n3c2)c1` [Compound 43, methyl N-[5-[6-[(3-ethynylphenyl)-methyl-carbamoyl]imidazo[1,2-a]pyridin-3-yl]-2-pyridyl]carbamate], in the assay with Phytophthora infestans, the pest or weed control at 200 ppm was no less than 80%. For the same compound, the inhibition at 20 ppm in the assay on Pythium ultimum is no less than 80%.
For `COC(=O)Nc1ccc(-c2cnc3ccc(C(=O)N(CC(C)C)c4ccccc4)cn23)cn1` [Compound 134, methyl N-[5-[6-[isobutyl(phenyl)carbamoyl]imidazo[1,2-a]pyridin-3-yl]-2-pyridyl]carbamate], the pest or weed control at 200 ppm with Phytophthora infestans is no less than 80%.
As for `CONC(=O)Nc1ccc(-c2cnc3ccc(C(=O)N(C)c4ccc(F)c(OC)c4)cn23)cn1` [Compound 99], in the assay on Phytophthora infestans, the pest or weed control at 200 ppm was no less than 80%. For the same compound, the inhibition at 20 ppm in the assay on Pythium ultimum was no less than 80%.
As to `CNC(=O)Nc1ccc(-c2cnc3ccc(C(=O)N(C)c4ccc(F)c(OC)c4)cn23)cc1` [Compound 80, N-(4-fluoro-3-methoxy-phenyl)-N-methyl-3-[4-(methylcarbamoyl-amino)phenyl]imidazo[1,2-a]pyridine-6-carboxamide], the pest or weed control at 200 ppm with Phytophthora infestans is no less than 80%. Also, the inhibition at 20 ppm in the assay with Pythium ultimum is no less than 80%.
Take `COC(=O)Nc1ccc(-c2cnc3ccc(C(=O)N(CCC#N)c4ccc(Cl)cc4)cn23)cn1` [Compound 128, methyl N-[5-[6-[(4-chlorophenyl)-(2-cyanoethyl)carbamoyl]imidazo[1,2-a]pyridin-3-yl]-2-pyridyl]carbamate]: in the assay on Phytophthora infestans, the pest or weed control at 200 ppm is no less than 80%. In addition, the inhibition at 20 ppm in the assay with Pythium ultimum is no less than 80%.
Turning to `COC(=O)Nc1ccc(-c2cnc3ccc(C(=O)N(C)c4cccc(Cl)c4)cn23)cn1` [Compound 62, methyl N-[5-[6-[(3-chlorophenyl)-methyl-carbamoyl]imidazo[1,2-a]pyridin-3-yl]-2-pyridyl]carbamate], in the assay with Phytophthora infestans, the pest or weed control at 200 ppm was no less than 80%. In the assay with Pythium ultimum, the inhibition at 20 ppm was no less than 80%.
`COC(=O)Nc1ccc(-c2cnc3ccc(C(=O)N(C)c4ccnc(C)c4)cn23)cc1` [Compound 12, methyl N-[4-[6-[methyl-(2-methyl-4-pyridyl)carbamoyl]imidazo [1,2-a]pyridin-3-yl]phenyl]carbamate]: the inhibition at 20 ppm with Pythium ultimum was no less than 80%.
